In the NIST ThermoML archive (doi:10.1016/j.jct.2019.01.018):
± gives the expanded uncertainty stated by the source.

Experiment: xn = mol fraction of the nth substance listed
Conditions: 298.15 K, 101.1 kPa, Liquid; for viscosity: Falling or rolling sphere viscometry; for mass density: Vibrating tube method

Row | viscosity (x1 = 0.333) | mass density (x1 = 0.333) | viscosity (x2 = 0.333) | mass density (x2 = 0.333) | SMILES
1 | 39.45 ± 8.3 mPa·s | 1120.4 ± 15 kg/m3 | – | – | C[N+](C)(C)CCO.[Cl-] [choline chloride] + OCCO
2 | – | – | 1348.3 ± 320 mPa·s | 1210.4 ± 16 kg/m3 | NC(N)=O [urea] + C[N+](C)(C)CCO.[Cl-]
3 | 317.14 ± 69 mPa·s | 1191.3 ± 16 kg/m3 | – | – | C[N+](C)(C)CCO.[Cl-] [choline chloride] + OCC(O)CO
